Measurements: ChEMBL document CHEMBL4393707, “Synthesis and evaluation of new quinazolin-4(3H)-one derivatives as potent antibacterial agents against multidrug resistant Staphylococcus aureus and Mycobacterium tuberculosis” (Eur J Med Chem, 2019)
Values after ≈ are worked out from the molar mass of the structure shown. Active and inactive are the calls of the source. No cut-off for these calls is given here.

Columns and labels:
Acinetobacter baumannii = assay: Antibacterial activity against Acinetobacter baumannii BAA1605 incubated for 16 to 18 hrs by broth microdilution assay; type: functional
Escherichia coli = assay: Antibacterial activity against Escherichia coli ATCC 25922 incubated for 16 to 18 hrs by broth microdilution assay; type: functional
[1] = Cytotoxicity against African green monkey Vero cells assessed as reduction in cell viability after 72 hrs by MTT assay; type: cell-based; settings: chlorocebus sabaeus
[2] = Selectivity index, ratio of CC50 for African green monkey Vero cells to MIC for Mycobacterium tuberculosis H37Rv; type: toxicity; settings: read-out: Selectivity Index
Staphylococcus aureus [3] = assay: Antibacterial activity against Staphylococcus aureus ATCC 29213 incubated for 16 to 18 hrs by broth microdilution assay; type: functional
Pseudomonas aeruginosa = assay: Antibacterial activity against Pseudomonas aeruginosa ATCC 27853 incubated for 16 to 18 hrs by broth microdilution assay; type: functional
[4] = tested on: Mycobacterium tuberculosis; assay: Antitubercular activity against Mycobacterium tuberculosis H37Rv after 7 days by resazurin dye based assay; type: functional; settings: 168 h
Klebsiella pneumoniae = assay: Antibacterial activity against Klebsiella pneumoniae ATCC BAA-1705 incubated for 16 to 18 hrs by broth microdilution assay; type: functional
[5] = Selectivity index, ratio of CC50 for African green monkey Vero cells to MIC for Staphylococcus aureus ATCC 29213; type: toxicity; settings: read-out: Selectivity Index
Staphylococcus aureus [6] = assay: Antibacterial activity against vancomycin-resistant Staphylococcus aureus VRS4 incubated for 16 to 18 hrs by broth microdilution assay; type: functional
Staphylococcus aureus [7] = assay: Antibacterial activity against methicillin-resistant Staphylococcus aureus NR10194 incubated for 16 to 18 hrs by broth microdilution assay; type: functional
Staphylococcus aureus [8] = assay: Antibacterial activity against methicillin-resistant Staphylococcus aureus NR10193 incubated for 16 to 18 hrs by broth microdilution assay; type: functional
Staphylococcus aureus [9] = assay: Antibacterial activity against methicillin-resistant Staphylococcus aureus NR10198 incubated for 16 to 18 hrs by broth microdilution assay; type: functional
Staphylococcus aureus [10] = assay: Antibacterial activity against vancomycin-resistant Staphylococcus aureus VRS1 incubated for 16 to 18 hrs by broth microdilution assay; type: functional
Staphylococcus aureus [11] = assay: Antibacterial activity against methicillin-resistant Staphylococcus aureus NR10186 incubated for 16 to 18 hrs by broth microdilution assay; type: functional
Staphylococcus aureus [12] = assay: Antibacterial activity against methicillin-resistant Staphylococcus aureus NR10191 incubated for 16 to 18 hrs by broth microdilution assay; type: functional
Staphylococcus aureus [13] = assay: Antibacterial activity against methicillin-susceptible Staphylococcus aureus ATCC 29213 incubated for 16 to 18 hrs by broth microdilution assay; type: functional
Staphylococcus aureus [14] = assay: Antibacterial activity against methicillin-resistant Staphylococcus aureus NR100 incubated for 16 to 18 hrs by broth microdilution assay; type: functional
Staphylococcus aureus [15] = assay: Antibacterial activity against vancomycin-resistant Staphylococcus aureus VRS12 incubated for 16 to 18 hrs by broth microdilution assay; type: functional
Staphylococcus aureus [16] = assay: Antibacterial activity against methicillin-resistant Staphylococcus aureus NR10192 incubated for 16 to 18 hrs by broth microdilution assay; type: functional
Staphylococcus aureus [17] = assay: Antibacterial activity against methicillin-resistant Staphylococcus aureus NR10129 incubated for 16 to 18 hrs by broth microdilution assay; type: functional
Staphylococcus aureus [18] = assay: Antibacterial activity against methicillin-resistant Staphylococcus aureus NR119 incubated for 16 to 18 hrs by broth microdilution assay; type: functional
Staphylococcus aureus [19] = assay: Antibacterial activity against Staphylococcus aureus ATCC 29213 assessed as time required to increase 1 log10 CFU at MIC incubated for 1 hr followed by compound washout and measured at 1 hr intervals (reference value: 2 hrs); type: functional
Staphylococcus aureus [20] = assay: Antibacterial activity against Staphylococcus aureus ATCC 29213 assessed as time required to increase 1 log10 CFU at 10 times MIC incubated for 1 hr followed by compound washout and measured at 1 hr intervals (reference value: 2 hrs); type: functional
Staphylococcus aureus [21] = assay: Antibiofilm activity against Staphylococcus aureus ATCC 29213 at 10 times MIC incubated 48 hrs by crystal violet staining based assay relative to control; type: functional
Staphylococcus aureus [22] = assay: Antibacterial activity against Staphylococcus aureus ATCC 29213 assessed as post antibiotic effect time at MIC incubated for 1 hr followed by compound washout and measured at 1 hr intervals (reference value: 0 hrs); type: functional
Staphylococcus aureus [23] = assay: Antimicrobial activity against Staphylococcus aureus ATCC 29213 infected in BALB/c mouse model of neutropenic thigh infection assessed reduction in bacterial levels in thigh at 25 mg/kg, ip administered 3 hrs post infection twice at interval of 3 hrs between injections and measured after 24 hrs; type: functional, organism-based
Staphylococcus aureus [24] = assay: Antibacterial activity against Staphylococcus aureus ATCC 29213 assessed as post antibiotic effect time at 10 times MIC incubated for 1 hr followed by compound washout and measured at 1 hr intervals (reference value: 0 hrs); type: functional

Row | Compound | MIC (Acinetobacter baumannii) [µg/mL] | MIC (Escherichia coli) [µg/mL] | CC50 at 72 h [1] [µg/mL] | selectivity ratio [2] | MIC (Staphylococcus aureus [3]) [µg/mL] | MIC (Pseudomonas aeruginosa) [µg/mL] | MIC [4] [µg/mL] | MIC (Klebsiella pneumoniae) [µg/mL] | further results
1 | Cc1nc2cc(-c3ccc(F)cc3)ccc2c(=O)n1-c1cccc(Cl)c1 | > 64 | > 64 | > 15 | > 0.93 | > 64 | > 64 | 16 (≈ 43.9 µM) | > 64 | 
2 | C#CCNc1ccc2c(=O)n(-c3ccccc3)c(C)nc2c1 | > 64 | > 64 | > 100 | > 25 | > 64 | > 64 | 4 (≈ 13.8 µM) | > 64 | 
3 | C#Cc1cccc(-n2c(/C=C/c3ccc(C#N)cc3)nc3cccc(F)c3c2=O)c1 | > 64 | > 64 | > 10 |  | 0.25 (≈ 0.639 µM) | > 64 | > 64 | > 64 | selectivity ratio [5]: > 40
4 | C[C@@H](O)[C@H]1C(=O)N2C(C(=O)O)=C(S[C@@H]3CN[C@H](C(=O)N(C)C)C3)[C@H](C)[C@H]12 [MEROPENEM] |  |  |  |  | 0.25 (≈ 0.652 µM) |  |  |  | MIC (Staphylococcus aureus [6]): > 64 µg/mL; MIC (Staphylococcus aureus [7]): 0.5 µg/mL (≈ 1.3 µM); MIC (Staphylococcus aureus [8]): 32 µg/mL (≈ 83.4 µM); MIC (Staphylococcus aureus [9]): 32 µg/mL (≈ 83.4 µM); MIC (Staphylococcus aureus [10]): > 64 µg/mL; MIC (Staphylococcus aureus [11]): 16 to 32 µg/mL (≈ 41.7 to 83.4 µM); MIC (Staphylococcus aureus [12]): > 64 µg/mL; MIC (Staphylococcus aureus [13]): < 0.5 µg/mL; MIC (Staphylococcus aureus [14]): > 64 µg/mL; MIC (Staphylococcus aureus [15]): > 64 µg/mL; MIC (Staphylococcus aureus [16]): 4 to 8 µg/mL (≈ 10.4 to 20.9 µM); MIC (Staphylococcus aureus [17]): 16 µg/mL (≈ 41.7 µM); MIC (Staphylococcus aureus [18]): > 64 µg/mL
5 | N#Cc1ccc(/C=C/c2nc3ncccc3c(=O)n2-c2ccc(S)cc2)cc1 | > 64 | > 64 | > 10 |  | 2 (≈ 5.23 µM) | > 64 | > 64 | > 64 | selectivity ratio [5]: > 5
6 | CN[C@H](CC(C)C)C(=O)N[C@H]1C(=O)N[C@@H](CC(N)=O)C(=O)N[C@H]2C(=O)N[C@H]3C(=O)N[C@H](C(=O)N[C@H](C(=O)O)c4cc(O)cc(O)c4-c4cc3ccc4O)[C@H](O)c3ccc(c(Cl)c3)Oc3cc2cc(c3O[C@@H]2O[C@H](CO)[C@@H](O)[C@H](O)[C@H]2O[C@H]2C[C@](C)(N)[C@H](O)[C@H](C)O2)Oc2ccc(cc2Cl)[C@H]1O [VANCOMYCIN] |  |  |  |  |  |  |  |  | Time (Staphylococcus aureus [19]): 3 h; Time (Staphylococcus aureus [20]): 4 h; MIC (Staphylococcus aureus [6]): > 64 µg/mL; Activity (Staphylococcus aureus [21]): 7.7%; Time (Staphylococcus aureus [22]): 1 h; MIC (Staphylococcus aureus [10]): > 64 µg/mL; Activity (Staphylococcus aureus [23]): Active; MIC (Staphylococcus aureus [15]): > 64 µg/mL; Time (Staphylococcus aureus [24]): 2 h
7 | C#CCOc1cccc(-n2c(/C=C/c3ccc(C#N)cc3)nc3cccc(F)c3c2=O)c1 | > 64 | > 64 | 5 to 10 (≈ 11.9 to 23.7 µM) | > 5 | 0.5 (≈ 1.19 µM) | > 64 | 2 (≈ 4.75 µM) | > 64 | selectivity ratio [5]: > 10
8 | Cc1nc2cc(-c3ccccc3)ccc2c(=O)n1-c1cccc(Cl)c1 | > 64 | > 64 | 12.5 (≈ 36 µM) | 0.78 | > 64 | > 64 | 16 (≈ 46.1 µM) | > 64 | 
9 | N#Cc1ccc(/C=C/c2nc3ccccc3c(=O)n2-c2ccc(O)cc2C(=O)O)cc1 | > 64 | > 64 |  |  | > 64 | > 64 | > 64 | > 64 | 
10 | N#Cc1ccc(/C=C/c2nc3ccccc3c(=O)n2Cc2ccc(Cl)c(Cl)c2)cc1 | > 64 | > 64 |  |  | > 64 | > 64 | > 64 | > 64 | 
11 | COc1ccc(-c2ccc3c(=O)n(-c4cccc(Cl)c4)c(C)nc3c2)cc1 | > 64 | > 64 |  |  | > 64 | > 64 | > 64 | > 64 | 
